Literature values, collected in patent US8188047B2, “Therapeutic and cosmetic compositions for treatment of skin” (priority 2009, dated 2012).

Settings: typically

## FC1(F)C(F)(F)C(F)(F)C2(F)C(F)(F)C(F)(F)C(F)(F)C(F)(F)C2(F)C1(F)F (stereo not shown) [perfluorodecalin]
  stable up to (temperature): up to 400 °C
